Positions of bridges follow the written chain, without caps; N, C: chain ends. Residues, ends and D or L forms follow the SMILES beside them.
What was measured:
S. aureus ATCC 25923 [1] = test: Mouse mastitis model, bacterial counts in mammary tissues; type: in vivo; conditions: 24 h after treatment; for bacteria reduction in mammary tissues: vs PC group
Text: (§1) The 7 to 8-weeks old ICR mice (80 females, 40 males) were housed in independent ventilated cages, and feed with autoclaved laboratory food and water. Female mice in heat were put into the cage of males (females:males, 2:1) overnight and checked for vaginal plugs at the following morning to induce pregnancy. ICR-lactating mice were used at 6 to 8 days after the birth of the offspring. The mouse mastitis model was established as previously described (Li et al. [2017]). Mice were randomly divided into nine groups: NC group (uninfected group), PC group (infected but without treatment), NZX groups (25, 50, 100, 200 and 400 μg/gland, respectively), lincomycin group (100 μg/gland), and ceftiofur group (100 μg/gland). Each experimental group has six independent experiments with three mice. Specially, the pups were removed 1 h before the intramammary injection of both L4 (on the left) and R4 (on the right) abdominal mammal glands. A 100 μL of S. aureus strains (1 × 10^6 CFU/mL) was administrated to mice in PC, NZX, lincomycin and ceftiofur groups, and the same volume of sterile physiological saline was administrated to mice in NC group. Glands of 3 h post-infection were injected with sterile physiological saline, NZX, lincomycin, or ceftiofur. The mice were euthanized after the treatment for 24 h, and their mammary glands were dissected, weighed, and homogenized. The animal experiments were performed according to the Animal Care and Use Committee of the Feed Research Institute, Chinese Academy of Agricultural Sciences (Permit Number: AEC-CAAS-20090609) in accordance with the Guidelines for Animal Experimentation.
(§2) After mouse sacrifice, one part of mammary tissue was taken for bacterial count, and the other part was used for the histopathological analysis. Specifically, tissues were aseptically collected immediately from the dead mice, weighted, homogenized with sterile physiological saline (1:1, W:V). Next, the homogenates were serially diluted (ten-fold dilutions) in physiological saline, plated on MHA plate, and then cultured overnight at 37 °C. The bacterial number on each plate was counted and the results were expressed as Log10 CFU per gram of mammary tissues. In addition, mammary tissues were fixed in 4% paraformaldehyde, then embedded in paraffin, cut into 5 μm sections, and later stained by hematoxylin–eosin (H&E). The stained sections were observed under a light microscope (× 200) for pathological morphology and scoring of mammary tissues (Schmidt et al. [1992]).

S. aureus E48 [2] = test: as above; type: in vivo; conditions: 3 h post-infection, 24 h after treatment, vs PC group
Text: as §1, §2

S. aureus ATCC 43300 [3] = test: as above; type: in vivo; conditions: 24 h after treatment, vs PC group
Text: as §1, §2

S. aureus ATCC 25923 [4] = test: Cell membrane permeability, PI staining by flow cytometry; type: cell-based, Staphylococcus aureus
Protocol: (§3) Flow cytometry was used for the analysis of the effects of NZX on the penetration rate of the S. aureus cell membrane (Yang et al. [2019]). The S. aureus cells in mid-log phase were adjusted to 1 × 10^8 CFU/mL and the bacteria suspensions were treated with 1 × , 2 × and 4 × MIC of NZX for 2 h at 37 °C. In addition, the cell suspensions were incubated with 2 × MIC of NZX for 0 h, 0.5 h, 1 h and 2 h, respectively. After incubation, the cells were centrifuged at 4000 rpm at 4 °C for 5 min, washed twice with sterile PBS, and pellets were resuspended in 1 mL of PBS. Next, cells were stained with 50 µg/mL propidium iodide (PI) for 30 min in the dark at room temperature, and the proportion of cells with PI positive cells to the total cells were analyzed by flow-cytometry (BD, USA). Lincomycin and ceftiofur were used as positive controls and PBS as negative control. Three replicates for each treatment were conducted.

S. aureus E48 [5] = test: as above; type: cell-based, Staphylococcus aureus
Protocol: as §3

S. aureus ATCC 25923 [6] = test: Post antibiotic effect (PAE); type: cell-based, Staphylococcus aureus; conditions: 2 h exposure at 1 × to 8 × MIC, 1 × 10^8 CFU/mL, triplicate
Protocol: (§4) PAE was performed based on the method of Zhang et al. (Zhang et al. [2014]). S. aureus E48, S. aureus ATCC 25923 and S. aureus ATCC 43300 were cultured at 37 °C in MHB medium to the log-phase. Then, the diluted cells (1 × 10^8 CFU/mL) were exposed to NZX with final concentration of 1 × , 2 × , 4 × and 8 × MIC in the 48-well plates for 2 h at 37 °C. After incubation, NZX were removed by diluting 1:1000 with MHB medium. Viable counts were determined immediately after drug reconstruction and at 1–2 h interval for at least 10 h. PAE determination was calculated as PAE (h) = T-C, where T is the time (h) that required to increase by tenfold for the drug-treated viable count from the moment of drug reconstruction and C is the time (h) required to increase by tenfold for cell density without treatment. The experiments were conducted in triplication.

S. aureus E48 [7] = test: Post antibiotic effect (PAE); type: cell-based, Staphylococcus aureus; conditions: 2 h exposure at 1 × to 8 × MIC, 1 × 10^8 CFU/mL, triplicate
Protocol: as §4

S. aureus ATCC 43300 [8] = test: Post antibiotic effect (PAE); type: cell-based, Staphylococcus aureus; conditions: 2 h exposure at 1 × to 8 × MIC, 1 × 10^8 CFU/mL, triplicate
Protocol: as §4

S. aureus ATCC 25923 [9] = test: Mutant prevention concentration (MPC) on MHA plates; type: cell-based, Staphylococcus aureus; conditions: 1 × 10^10 CFU/mL, 37 °C, 72 h, each concentration three times
Protocol: (§5) Minimal Inhibitory Concentration (MIC), Minimal Bactericidal Concentration (MBC) and Mutant Prevention Concentration (MPC).
(§6) MPCs of NZX against the test S. aureus strain were determined as described by Plowgian et al., with some modification (Plowgian et al. [2019]). In brief, S. aureus cells were cultured to mid-log phase in Mueller–Hinton broth (MHB) medium. Then the suspensions were centrifuged (4000 rpm for 5 min) and the pellets were collected and diluted to a final concentration of 1 × 10^10 CFU/mL with MHB. […] All plates were incubated at 37 ^∘C for 72 h and the concentration corresponding to the plate with no bacterial growth was regarded as the provisional mutant prevention concentration (MPCpr). […] Lincomycin and ceftiofur were set as antibiotic controls, respectively. Each concentration was conducted three times.

S. aureus E48 [10] = test: as above; type: cell-based, Staphylococcus aureus; conditions: 1 × 10^10 CFU/mL, 37 °C, 72 h, each concentration three times
Protocol: as §5, §6

[11] = 2 × MIC, range over 0, 0.5, 1 and 2 h
[12] = 2 h, range over 1 × MIC, 2 × MIC and 4 × MIC
[13] = range over 25 ~ 400 μg/gland intramammary

Compound | bacteria reduction in mammary tissues (S. aureus ATCC 25923 [1]; 100 μg/gland intramammary) [Log10 CFU/g] | bacteria reduction in mammary tissues (S. aureus E48 [2]; 100 μg/gland intramammary) [Log10 CFU/g] | bacteria reduction in mammary tissues (S. aureus ATCC 43300 [3]; 100 μg/gland intramammary) [Log10 CFU/g] | percentage of PI-positive cells (S. aureus ATCC 25923 [4]; [11]) | percentage of PI-positive cells (S. aureus ATCC 25923 [4]; [12]) | percentage of PI-positive cells (S. aureus E48 [5]; [11]) | percentage of PI-positive cells (S. aureus E48 [5]; [12]) | mean PAE range (S. aureus ATCC 25923 [6]) [h] | mean PAE range (S. aureus E48 [7]) [h] | mean PAE range (S. aureus ATCC 43300 [8]) [h] | MPC (S. aureus ATCC 25923 [9]) [µM] | MPC (S. aureus E48 [10]) [µM] | bacterial loads in mammary tissues (S. aureus ATCC 25923 [1]; 400 μg/gland intramammary) | bacteria reduction in mammary tissues (S. aureus ATCC 25923 [1]; range over 25–400 μg/gland intramammary) | bacteria reduction in mammary tissues (S. aureus E48 [2]; [13]) | bacteria reduction in mammary tissues (S. aureus ATCC 43300 [3]; 400 μg/gland intramammary) [Log10 CFU/g] | bacteria reduction in mammary tissues (S. aureus ATCC 43300 [3]; [13])
CO/N=C(\C(=O)N[C@@H]1C(=O)N2C(C(=O)O)=C(CSC(=O)c3ccco3)CS[C@H]12)c1csc(N)n1 [Ceftiofur] | 6.99 | 5.70 | 4.82 | 1.35–4.31% | 1.55–3.42% | 2.61–23.53% | 8.56–21.1% | 1.40 to 2.29 | 1.30 to 2.10 | 0.82 to 1.76 | 234.24 | 5.49 |  |  |  |  | 
CCC[C@@H]1C[C@@H](C(=O)N[C@@H]([C@H]2O[C@H](SC)[C@H](O)[C@@H](O)[C@H]2O)[C@@H](C)O)N(C)C1 [Lincomycin] | 5.23 | 7.37 |  |  | 0.45 to 0.63% | 0.13–2.61% | 0.08 to 0.09% | 0.94 to 1.52 | 2.02 to 3.27 |  | > 1111.04 | > 1111.04 |  |  |  |  | 
CC[C@H](C)[C@@H]1NC(=O)[C@H](CO)NC(=O)[C@H](CCCCN)NC(=O)[C@@H]2CSSC[C@@H](C(=O)N[C@@H](Cc3ccc(O)cc3)C(=O)O)NC(=O)[C@H](CCCCN)NC(=O)[C@@H]3CSSC[C@H](NC(=O)[C@H](CCC(N)=O)NC(=O)[C@H]([C@@H](C)CC)NC(=O)[C@H](CC(=O)O)NC(=O)[C@H](CC(=O)O)NC(=O)[C@H](CCC(=O)O)NC(=O)[C@H](CO)NC(=O)[C@H](Cc4c[nH]c5ccccc45)NC(=O)[C@@H]4CCCN4C(=O)CNC(=O)[C@H](CC(N)=O)NC(=O)[C@@H](NC(=O)CNC(=O)[C@H](Cc4ccccc4)NC(=O)CN)CSSC[C@H](NC(=O)[C@H](Cc4ccc(O)cc4)NC(=O)CNC(=O)CNC(=O)[C@H](CCCCN)NC(=O)[C@H](Cc4ccc(O)cc4)NC(=O)CNC(=O)[C@H](CCCCN)NC1=O)C(=O)N[C@@H](C)C(=O)N[C@@H](CCCNC(=N)N)C(=O)NCC(=O)NCC(=O)N[C@@H](Cc1ccccc1)C(=O)N[C@@H](C(C)C)C(=O)N3)C(=O)N[C@@H](Cc1c[nH]cn1)C(=O)N[C@@H](CC(N)=O)C(=O)N[C@@H](Cc1c[nH]cn1)C(=O)N2 [NZX] (H-GFGCNGPWSEDDIQCHNHCKSIKGYKGGYCARGGFVCKCY-OH; disulfide 4-30, 15-37, 19-39; N-terminus and C-terminus assumed) | 4.73 | 8.34 | 3.47 | 1.93 to 54.06% | 12.9–48.0% | 2.61 to 72.93% | 25.6–70.3% | 1.67 to 3.34 | 1.14 to 3.60 | 0.00 to 8.48 | 3.68 | 1.47 | eliminated | 3.35–11.09 Log10 CFU/g | 0.77–8.34 Log10 CFU/g | 8.81 | 0.66 ~ 8.81 Log10 CFU/g

— paper PMC11636681, “Pharmacokinetics and pharmacodynamics of antibacterial peptide NZX in Staphylococcus aureus mastitis mouse model” (Applied Microbiology and Biotechnology, 2024)
